Test results reported in patent US6214805A, “RNase L activators and antisense oligonucleotides effective to treat RSV infections” (priority 1997, dated 2001).

Columns and labels:
RSV strain A2 [1] = assay: Inhibition of RSV replication in RSV-infected 9HTE cells, virus plaque assay on CV-1 cells at 36 h post-infection; format: cell-based, Respiratory syncytial virus; settings: for % Inhibition of RSV replication: 9HTE cells, M.O.I. 2.0, 36 hrs post-infection
Source text: To develop 2-5A antisense chimeras with the potential to block RSV replication, an oligonucleotide binding site in the viral RNA polymerase (RSV L) mRNA, which encodes a low abundance message that is absolutely required for RSV replication was selected. The first chimera synthesized and evaluated was pA4 -antiRSV/(8490-8509). The binding sites for the chimeric oligonucleotide's antisense domain are to the transcripts of nucleotides 8490-8509 in the RSV genome, which spans the translation start codon for the L protein, and to nucleotides 8490-8509 of the antigenomic strand (the template for reproduction of the genome). Since to function as an effective treatment, a candidate agent must be able to inhibit viral replication subsequent to diagnosis, the anti-RSV effect of the 2-5A antisense chimera was determined on human tracheal epithelial cells, 9HTE, with treatments beginning either 4 h before RSV infection (pre-/post-infection treatments) or 2 h following infection (post-infection treatments). In the post-infection treatments, pA4 -antiRSV/([…]), was added at t+2, t+14 and t+26, (numbers represent time in h relative to time of infection, 0) For pre-infection treatment, pA4 -antiRSV/(8490-8509) (10 μM final concentration), was added at t-4, and t0 in addition to […]; t+14 and t+26. Virus harvested from control and oligonucleotide-treated 9HTE cells was measured by infecting CV-1 cells and subsequently counting viral plaques. […] On the basis of these experiments, all subsequent experiments were performed with post-infectiontreatments only. Additionally, these experiments indicate the potential use of these compounds as a treatment for active infection as compared to a prophylactic measure.
The human tracheal epithelial cell line, 9HTE, (Gruenert et al., 1988) and CV-1 cells, (American Type Culture Collection, Rockville, Md., CCI#70) a green monkey kidney cell line which is highly permissive to RSV infection, were cultured in minimal essential medium (MEM) supplemented with 10% (v/v) fetal bovine serum (FBS), 2 mM L-glutamine, 1× MEM amino acids solution, 1× MEM non-essential amino acids solution, 100 U/ml penicillin, 100 μg/ml streptomycin and 0.25 μg/ml amphotericin B ("culture medium") (all reagents from Gibco BRL, Bethesda, Md.). RSV strain A2 (ATCC No. VR1302) was propagated in CV-1 cells. CV-1 monolayers were infected at a multiplicity of infection (M.O.I.) of 0.2 and cultured 46 h in MEM, 2% FBS, 1× Penicillin/Streptomycin (PS) in 5% CO2, 95% O2 at 37° C. Cells were then washed 2 times in MEM and subsequently covered in MEM, 2% FBS, 1× PS, 50 mM HEPES (pH7.5), 100 mM Mg(SO4). After 2 h at 37° C., cells were scraped and sonicated as previously described (Panuska et al., 1995). Aliquots (1 ml each) of cell sonicates were flash frozen in ethanol/dry ice within 20 min of scraping. Several aliquots were then thawed and titered by a plaque assay on CV-1 cells as previously described (Cirino et al., 1993). The range of virus yield from this procedure was 2 to 7×10^6 plaque forming units (pfu) per ml.
Infection of 9HTE cells was performed as previously described (Merolla et al., 1994). Briefly, confluent monolayers were exposed to RSV diluted in MEM, 2% FBS, for 2 h at 37° C. in 5% CO2, 95% O2. After exposure, cells were washed two times with serum-free MEM media and then fresh culture media (with 10% FBS) was added. Oligonucleotides were either added 4 h prior to infection (t-4) or immediately after infection (t+2) and also at t+14 and t+26. Cells were harvested for plaque assays at 36 h post-infection to determine viral titers as previously described (Cirino et al., 1993). Cells were washed twice to remove any residual antisense and were then scraped in MEM containing 2% FBS, 1× PS. 9HTE cells were sonicated for 20 sec on ice then the extracts were serially diluted and transferred to a confluent monolayer of CV-1 for quantitation of infectious viral particles. […]

RSV M2 RNA = assay: RT-PCR of M2 RNA from RSV-infected 9HTE cells; format: cell-based, Respiratory syncytial virus; settings: RNA at 8 h post-infection, M.O.I.=10
Protocol: To determine if RSV RNA levels correlated with antiviral activity, RT-PCR analysis was performed on RNA isolated from RSV-infected and uninfected 9HTE cells with and without treatment with spA4 -antiRSV3'3'T/(8281-8299) or spA4 -antiRSV3'3'A/(8530-8547). An M2 RNA sequence in RSV (from nucleotides 7879 to 8465) was converted to cDNA and amplified by PCR. M2 RNA from the RSV-infected cells produced an RT-PCR DNA product that was clearly visible. […] Levels of GAPDH transcripts were similar in all of these RNA preparations.
RNA was collected from 2×10^5 9HTE cells at 8 h post-infection (M.O.I.=10) by RNAzol treatment as described by the manufacturer (Tel-Test, Inc, Freindswood, Tex.). RNA was isolated after 8 h to limit RSV replication to a single cycle. Isolated RNA (≈1 μg) was incubated with 100 pmoles of the appropriate downstream (-) primer listed below or 100 pmoles of random hexamer (used for glyceraldehyde-3-phosphatedehydrogenase, GAPDH, mRNA only). RNA and primers were heated to 70° C. for 10 min then cooled rapidly on ice for 5 min. […]
25 μl Hot-Start upper buffer contained 5 U Taq DNA polymerase (GibcoBRL) and 1/10th of the cDNA from the RT reaction. […] Aliquots of the RT/PCR mixtures were analyzed on 1% agarose/TBE gels.

RSV strain A2 [2] = assay: Antiviral activity in Hep-2 cells, neutral red (reduction of RSV-induced CPE); format: cell-based, Respiratory syncytial virus; settings: neutral red, MOI = 0.005, added twice daily for 4 d, read on d 5
Source text: (§1) A comparison of the efficacies of spA4 -antiRSV3'3'T/(8281-8299) treatment and conventional ribarvirin treatment can be obtained by determining the RSV-inhibitory concentration and the cytotoxic concentration of each compound. Cultures of the human laryngeal carcinoma cell line HEp-2 and the […] renal cell line MA-104 were established and infected with an MOI=0.005. Cultures were fed twice daily. Treatment with either ribavirin or spA4 -antiRSV3'3'T/(8281-8299) was begun simultaneously with infection and continued for four days. Treatment was then withdrawn and the test read on day 5. The effects of treatment on RSV infection were reported as 1) an EC50, the concentration at which there was a 50% reduction in the observable cytopathic effects of infection and 2) an EC90, the concentration at which there was a 90% reduction in viral production. […] Therapeutic efficacy is estimated by the Selectivity Index, which is the ratio of IC50 /EC50.
determined with RSV strain A2, MOI = 0.005
(§2) Fresh medium and oligo or ribavirin added twice daily for 4 d and test read
(§3) EC50 effective concentration to reduce RSV-induced CPE by 50%.

Hep-2 Cells = assay: Cytotoxicity to Hep-2 cells (visual and dye uptake, rapidly dividing cells); format: cell-based, human
Source text: as §1
(§4) IC50 50% inhibitory concentration for cytotoxicity to cells (visual

RSV strain A2 [3] = assay: Antiviral activity in MA-104 cells, visual CPE; format: cell-based, Respiratory syncytial virus; settings: visual CPE, MOI = 0.005, added twice daily for 4 d, read on d 5
Source text: as §1
(§5) as determined with RSV strain A2, MOI = 0.005
as §2, §3

RSV strain A2 [4] = assay: Virus yield reduction in MA-104 cells; format: cell-based, Respiratory syncytial virus; settings: RSV yield reduced by 90%, MOI = 0.005, added twice daily for 4 d
Source text: as §1, §5, §2
EC90 effective concentration to reduce RSV yield by 90%.

MA-104 Cells = assay: Cytotoxicity to MA-104 cells (visual and dye uptake, rapidly dividing cells); format: cell-based, murine
Source text: as §1, §4

Substance: spA2'p(A2'p)3 -[(Bu)p]2 -(5'atg gtt att tgg gtt gtt3'-3't5') [spA4-antiRSV3'-3'T/(8281-8299)]
- % Inhibition of RSV replication (RSV strain A2 [1]; 3.3 μM oligonucleotide/treatment at t+2, t+14, t+26 h): 91.3%
- % Inhibition of RSV replication (RSV strain A2 [1]; 6.6 μM oligonucleotide/treatment at t+2, t+14, t+26 h): 97%
- % Inhibition of RSV replication (RSV strain A2 [1]; 9.9 μM oligonucleotide/treatment at t+2, t+14, t+26 h): 99.6%
- comparison of anti-RSV activities (FIG. 3) (RSV strain A2 [1]; spA4-linked versus spA2-linked oligonucleotide): greater potency
- M2 RNA RT-PCR product (RSV M2 RNA): no M2 RNA detected
- EC50 (RSV strain A2 [2]): 300 nM
- IC50 (Hep-2 Cells): > 10000 nM
- EC50 (RSV strain A2 [3]): 20 nM
- EC90 (RSV strain A2 [4]): 20 nM
- IC50 (MA-104 Cells): > 10000 nM
